Test results: PMC4512978, “Synthesis and evaluation in rats of homologous series of [^18F]-labeled dopamine D2/3 receptor agonists based on the 2-aminomethylchroman scaffold as potential PET tracers” (EJNMMI Research, 2015)

Test system: D2/3R
Experiment: Kinetic analysis of PET data (1TCM, 2TCM, Logan, SRTM);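 for 2TCM BPND change relative to control: Raclopride 1 mg/kg intravenous pretreatment versus saline controls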;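 for SRTM BPND change relative to control: Raclopride 1 mg/kg intravenous pretreatment versus saline controls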
Assay type: in vivo, Sprague-Dawley rats
Parameters: key to SRTM BPND / 1TCM BPND / 2TCM BPND (VT-based): BPND = VT(target)/VT(cerebellum) − 1 (or SRTM, cerebellum reference); SRTM BPND change relative to control / 1TCM BPND change relative to control / 2TCM BPND change relative to control / Logan BPND change relative to control: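 Raclopride 1 mg/kg intravenous pretreatment versus saline controls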; 1TCM VT / 2TCM VT: unit not given here
Description: Kinetic analysis is described using the nomenclature proposed by Innis et al.. ROI TACs of [^18F]FEt-AMC13 were analyzed with one-tissue and two-tissue compartmental models of reversible binding (1TCM and 2TCM, respectively) to obtain individual rate constants. From these, the regional distribution volumes (VT) were calculated and compared to those obtained with Logan graphical analysis. Binding potentials (BPND) were calculated from the distribution ratios as VT (target) / VT (cerebellum) – 1, or estimated with the simplified reference tissue model (SRTM) using the cerebellum as reference region.
Metabolite-corrected plasma-derived arterial input function and whole blood time-activity curve were used for Logan, 1TCM, and 2TCM analyses. Fractional cerebral blood volume was set to 3.6 % [27]. For one rat in the raclopride-treated group, no input curves could be obtained; therefore, its PET data were only analyzed with SRTM.
Degree of D2/3R-specific binding of the tracers was characterized by BPND (as given above) or the specific binding ratio (SBR) given as target region activity/cerebellar activity - 1. Both were calculated under control conditions and in response to the raclopride challenge.

[1] = Brainstem, raclopride, listed as [18F]FEt-AMC13

- 1TCM VT (Brainstem, control): 5.67±0.33
- 2TCM VT (Brainstem, control): 6.17±0.52
- Logan VT (Brainstem, control): 6.12±0.57
- 1TCM VT (Brainstem, raclopride): 4.99±0.56
- 2TCM VT (Brainstem, raclopride): 5.46±0.36
- Logan VT (Brainstem, raclopride): 5.53±0.26
- 1TCM VT (Cerebellum, control): 4.68±0.34
- 2TCM VT (Cerebellum, control): 5.08±0.49
- Logan VT (Cerebellum, control): 5.06±0.53
- 1TCM VT (Cerebellum, raclopride): 4.43±0.40
- 2TCM VT (Cerebellum, raclopride): 4.96±0.44
- Logan VT (Cerebellum, raclopride): 4.99±0.30
- 1TCM VT (Cortex, control): 5.53±0.38
- 2TCM VT (Cortex, control): 5.75±0.45
- Logan VT (Cortex, control): 5.69±0.49
SMILES: Oc1ccc2c(c1)O[C@@H](CNCc1ccc(OCC[18F])cc1)CC2 [[^18F]FEt-AMC13]
- fall of striatal BPND (1 mg/kg raclopride, depending on the kinetic model): 18–27%
- 1TCM BPND (Brainstem, control): 0.21±0.03
- 2TCM BPND (VT-based) (Brainstem, control): 0.22 ± 0.02
- Logan BPND (Brainstem, control): 0.21±0.02
- SRTM BPND (Brainstem, control): 0.18 ± 0.04
- 1TCM K1 (Brainstem, control rat A): 0.63 ± 0.04 mL/g/min
- 1TCM k2 (Brainstem, control rat A): 0.10 ± 0.02 min⁻¹
- 2TCM K1 (Brainstem, control rat A): 2.03 ± 0.40 mL/g/min
- 2TCM k2 (Brainstem, control rat A): 3.53 ± 1.32 min⁻¹
- 2TCM k3 (Brainstem, control rat A): 1.05 ± 0.19 min⁻¹
- 2TCM k4 (Brainstem, control rat A): 0.10 ± 0.01 min⁻¹
- 1TCM K1 (Brainstem, control rat B): 0.60 ± 0.03 mL/g/min
- 1TCM k2 (Brainstem, control rat B): 0.11 ± 0.01 min⁻¹
- 2TCM K1 (Brainstem, control rat B): 0.96 ± 0.11 mL/g/min
- 2TCM k2 (Brainstem, control rat B): 0.89 ± 0.30 min⁻¹
- 2TCM k3 (Brainstem, control rat B): 0.72 ± 0.83 min⁻¹
- 2TCM k4 (Brainstem, control rat B): 0.15 ± 1.20 min⁻¹
- 1TCM K1 (Brainstem, control rat C): 0.68 ± 0.02 mL/g/min
- 1TCM k2 (Brainstem, control rat C): 0.12 ± 0.01 min⁻¹
- 2TCM K1 (Brainstem, control rat C): 1.11 ± 0.22 mL/g/min
- 2TCM k2 (Brainstem, control rat C): 1.19 ± 0.59 min⁻¹
- 2TCM k3 (Brainstem, control rat C): 1.10 ± 1.86 min⁻¹
- 2TCM k4 (Brainstem, control rat C): 0.21 ± 2.66 min⁻¹
- 1TCM K1 (Brainstem, control rat D): 0.71 ± 0.03 mL/g/min
- 1TCM k2 (Brainstem, control rat D): 0.13 ± 0.01 min⁻¹
- 2TCM K1 (Brainstem, control rat D): 4.75 ± 5.87 mL/g/min
- 2TCM k2 (Brainstem, control rat D): 19.6 ± 19.9 min⁻¹
- 2TCM k3 (Brainstem, control rat D): 2.79 ± 15.04 min⁻¹
- 2TCM k4 (Brainstem, control rat D): 0.12 ± 37.81 min⁻¹
- 1TCM BPND (Brainstem, raclopride): 0.13±0.03
- 1TCM BPND change relative to control (Brainstem, raclopride): -41%
- 2TCM BPND (VT-based) (Brainstem, raclopride): 0.10 ± 0.02
- 2TCM BPND change relative to control (Brainstem, raclopride): −53%
- Logan BPND (Brainstem, raclopride): 0.11±0.02
- Logan BPND change relative to control (Brainstem, raclopride): -47%
- SRTM BPND (Brainstem, raclopride): 0.07 ± 0.03
- SRTM BPND change relative to control (Brainstem, raclopride): −60%
- 2TCM BPND (VT-based) [1]: 0.10±0.02
- 2TCM BPND change relative to control [1]: -53%
- SRTM BPND [1]: 0.07±0.03
- SRTM BPND change relative to control [1]: –60%
- 1TCM K1 (Cerebellum, control rat A): 0.57 ± 0.04 mL/g/min
- 1TCM k2 (Cerebellum, control rat A): 0.11 ± 0.02 min⁻¹
- 2TCM K1 (Cerebellum, control rat A): 2.10 ± 0.32 mL/g/min
- 2TCM k2 (Cerebellum, control rat A): 4.90 ± 1.30 min⁻¹
- 2TCM k3 (Cerebellum, control rat A): 1.23 ± 0.13 min⁻¹
- 2TCM k4 (Cerebellum, control rat A): 0.10 ± 0.005 min⁻¹
- 1TCM K1 (Cerebellum, control rat B): 0.61 ± 0.02 mL/g/min
- 1TCM k2 (Cerebellum, control rat B): 0.13 ± 0.01 min⁻¹
- 2TCM K1 (Cerebellum, control rat B): 0.81 ± 0.05 mL/g/min
- 2TCM k2 (Cerebellum, control rat B): 0.53 ± 0.24 min⁻¹
- 2TCM k3 (Cerebellum, control rat B): 0.46 ± 0.55 min⁻¹
- 2TCM k4 (Cerebellum, control rat B): 0.20 ± 0.71 min⁻¹
- 1TCM K1 (Cerebellum, control rat C): 0.62 ± 0.01 mL/g/min
- 1TCM k2 (Cerebellum, control rat C): 0.13 ± 0.01 min⁻¹
- 2TCM K1 (Cerebellum, control rat C): 0.86 ± 0.21 mL/g/min
- 2TCM k2 (Cerebellum, control rat C): 1.13 ± 1.45 min⁻¹
- 2TCM k3 (Cerebellum, control rat C): 1.84 ± 1.78 min⁻¹
- 2TCM k4 (Cerebellum, control rat C): 0.34 ± 0.12 min⁻¹
- 1TCM K1 (Cerebellum, control rat D): 0.68 ± 0.03 mL/g/min
- 1TCM k2 (Cerebellum, control rat D): 0.16 ± 0.02 min⁻¹
- 2TCM K1 (Cerebellum, control rat D): 48.7 ± 819.7 mL/g/min
- 2TCM k2 (Cerebellum, control rat D): 298 ± 5152 min⁻¹
- 2TCM k3 (Cerebellum, control rat D): 3.55 ± 1.05 min⁻¹
- 2TCM k4 (Cerebellum, control rat D): 0.13 ± 0.03 min⁻¹
- 1TCM BPND (Cortex, control): 0.18±0.05
- 2TCM BPND (VT-based) (Cortex, control): 0.13 ± 0.04
- Logan BPND (Cortex, control): 0.13±0.03
- SRTM BPND (Cortex, control): 0.11 ± 0.03
- 1TCM K1 (Cortex, control rat A): 0.37 ± 0.02 mL/g/min
- 1TCM k2 (Cortex, control rat A): 0.06 ± 0.01 min⁻¹
- 2TCM K1 (Cortex, control rat A): 1.68 ± 0.46 mL/g/min
- 2TCM k2 (Cortex, control rat A): 7.83 ± 1.43 min⁻¹
- 2TCM k3 (Cortex, control rat A): 1.84 ± 0.62 min⁻¹
- 2TCM k4 (Cortex, control rat A): 0.06 ± 4.47 min⁻¹
- 1TCM K1 (Cortex, control rat B): 0.47 ± 0.02 mL/g/min
- 1TCM k2 (Cortex, control rat B): 0.09 ± 0.01 min⁻¹
- 2TCM K1 (Cortex, control rat B): 0.66 ± 0.04 mL/g/min
- 2TCM k2 (Cortex, control rat B): 0.64 ± 0.21 min⁻¹
- 2TCM k3 (Cortex, control rat B): 0.72 ± 0.24 min⁻¹
- 2TCM k4 (Cortex, control rat B): 0.16 ± 0.02 min⁻¹
- 1TCM K1 (Cortex, control rat C): 0.41 ± 0.01 mL/g/min
- 1TCM k2 (Cortex, control rat C): 0.07 ± 0.002 min⁻¹
- 2TCM K1 (Cortex, control rat C): 0.43 ± 0.12 mL/g/min
